{"source": "paper PMC9599717", "about": "“The Multicellular Effects of VDAC1 N-Terminal-Derived Peptide” (Biomolecules, 2022)", "key": {"[1]": {"test_system": "U-87MG cells", "assay": "Acridine orange (AO) staining of acidic vesicles", "assay_type": "cell-based, human", "settings": "6 h, serum-free DMEM", "procedure": "Figure 7 D-Δ(1-18)-N-Ter-Antp peptide induced vesicle/particle formation. U-87MG cells were treated for 6 h with the indicated concentrations of D-Δ(1-18)N-Ter-Antp peptide in serum-free DMEM. (A) Cells were visualized for vesicle formation under a light microscope. Red circles indicate vesicles/particles. The images were captured at 40× and two folds enlargement is shown. (B,C) Cells were stained with acridine orange (AO). Arrows indicate red/orange stained endosomal/lysosomal vesicles (B). Scale bars were 20 μm. Vesicles/particles are indicated by violet arrows. Quantification of AO staining intensity (C). (D) Cells were stained with anti-vinculin antibodies, followed by secondary anti-mouse-cy3 antibodies. […] (F) U-87MG cells were treated with various concentrations of D-Δ(1-18)N-Ter-Antp peptide for the indicated time and subjected to Oil Red O staining and quantification as described in the Supplementary Data. […]\n(§1) color was read in a spectrophotometer at 680 nm. […]\n(§2) U-87MG cells were treated with D-Δ(1-18)N-Ter-Antp peptide in serum-free DMEM media for 6 h at 37℃, incubated with acridine orange (1 μg/ml) for 15 min, visualized by fluorescence microscopy (Olympus LX2 - KSP, Tokyo, Japan), and images were captured with a CCD camera. About 200 cells were counted for each […]"}, "[2]": {"test_system": "U-87MG cells", "assay": "Cell senescence assay (β-galactosidase activity)", "assay_type": "cell-based, human", "settings": "12 h / 6 h (supplementary method)", "procedure": "Figure 3 The D-Δ(1-18)N-Ter-Antp peptide induced autophagy and cellular senescence and altered the expression of apoptosis-related proteins. (A,B) U-87MG cells were treated with the indicated concentrations of D-Δ(1-18)N-Ter-Antp peptide for 12 h and then were subjected to immunoblotting for caspase-9, AIF, Bcl-xL, Bcl-2, and Bax and the relative expression level was quantified (B). (C,D) U-87MG cells were treated with the indicated concentrations of D-Δ(1-18)N-Ter-Antp peptide for 12 h and then subjected to immunoblotting for the autophagy markers LC3-I and LC3-II (C) and LC3-II quantification (D). (E,F) U-87MG cells were treated with the indicated concentrations of D-Δ(1-18)N-Ter-Antp peptide for 12 h and then subjected to β-gal activity (blue). Mouse embryonic fibroblast cells at passage 10 (MEF-P10) served as a positive control of senescent cells. Quantification of β-gal staining intensity (F). Data are presented as the mean ± SD, n = 3, * p < 0.05; ** p < 0.01; *** p < 0.001 versus control group. NS, non-specific. […]\nas §1, §2"}}, "data": [{"substance": "19-FTKGYGFGL-26- RQIKIWFQNRRMKWKK [D-Δ(1-18)N-Ter-Antp]", "values": [{"measurement": "Increase in orange color (AO accumulation in acidic vesicles)", "setting": "[1]", "result": "more than 3 fold"}, {"measurement": "Cellular senescence, β-galactosidase activity", "setting": "[2]", "result": "showed cellular senescence"}]}]}
